In ChEMBL document CHEMBL1149299, “Hemolytic effects of water-soluble fullerene derivatives” (J Med Chem, 2004):

What was measured:
[1] = Cytotoxicity against […] HepG2 cells by MTT assay; assay type: cell-based; conditions: read-out: LD50 (the source's name)
[2] = Cytotoxicity against pig LLC-PK1 cells by MTT assay; assay type: cell-based, Sus scrofa; conditions: read-out: LD50 (the source's name)
[3] = Cytotoxicity against human MCF7 by MTT assay; assay type: cell-based; conditions: MCF7 cells, read-out: LD50 (the source's name)
Erythrocyte [4] = assay: Hemolytic activity in human RBC at 30 uM; assay type: functional
Erythrocyte [5] = assay: Hemolytic activity in human RBC at 80 uM; assay type: functional

SMILES | CC50 [1] | CC50 [2] | CC50 [3] | Activity (Erythrocyte [4]) | Activity (Erythrocyte [5])
C[N+]1(CCOCCOCCN)CCCC1 | > 80 µM | > 80 µM | > 80 µM | – | –
CCCCCCCCCCCCCCCCCC(=O)NCCOCCOCCN.Cl | > 80 µM | > 80 µM | > 80 µM | 34% | 53%
